Data: PubChem BioAssay AID330 (DTP/NCI, 2004)
“And” between values parts separate entries of the source, which are not always exact repeats. Identical values can stand only once. Toxic doses and inconclusive results are not listed.

System: P388 leukemia ip, CD2F1 mice, survival T/C
Experiment: NCI In Vivo Anticancer Drug Screen. Data for tumor model P388 Leukemia (intraperitoneal) in CD2F1 (CDF1) mice
Details: endpoint: median survival time, higher = longer survival
Outline: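 Mice carrying the transplanted tumor received test compound or vehicle. Survival was recorded in each group, and the value is the treated-group measurement divided by that of the vehicle-treated control group.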

[1] = dose: 50.0 mg/kg/injection, schedule: Q01DX009 (ip), vehicle: Klucel (hydroxypropylcellulose) (HPC)
[2] = dose: 1.25 mg/kg/injection, schedule: Q01DX009 (ip), vehicle: Klucel (hydroxypropylcellulose) (HPC)
[3] = dose: 2.5 mg/kg/injection, schedule: Q01DX009 (ip), vehicle: Klucel (hydroxypropylcellulose) (HPC)
[4] = dose: 5.0 mg/kg/injection, schedule: Q01DX009 (ip), vehicle: Klucel (hydroxypropylcellulose) (HPC)
[5] = dose: 10.0 mg/kg/injection, schedule: Q01DX009 (ip), vehicle: Klucel (hydroxypropylcellulose) (HPC)
[6] = dose: 60.0 mg/kg/injection, schedule: Q01DX005 (ip), vehicle: saline with Tween-80
[7] = dose: 120.0 mg/kg/injection, schedule: Q01DX005 (ip), vehicle: saline with Tween-80

For `CC(C)CCCCCCCCCCCCC(=O)NCC(=O)NC1C(C)OC(Nc2ncnc3nc[nH]c23)C(O)C1O` (stereo not drawn), which T/C (dose: 0.13 mg/kg/injection, schedule: Q01DX009 (ip), vehicle: other) is on record?
The T/C was 114 % of control.

What about the T/C (dose: 0.25 mg/kg/injection, schedule: Q01DX009 (ip), vehicle: other) of the same compound?
Its T/C is 121 % of control.

What about the T/C (dose: 0.5 mg/kg/injection, schedule: Q01DX009 (ip), vehicle: other) of the same compound?
Its T/C is 123 % of control.

And the T/C (dose: 1.0 mg/kg/injection, schedule: Q01DX009 (ip), vehicle: other)?
The T/C was 157 % of control and 163 % of control.

And the T/C (dose: 1.0 mg/kg/injection, schedule: Q01DX009 (oral), vehicle: distilled water + Tween-80)?
The T/C was 104 % of control.

And the T/C (dose: 2.0 mg/kg/injection, schedule: Q01DX009 (oral), vehicle: distilled water + Tween-80)?
Its T/C is 102 % of control.

And the T/C (dose: 4.0 mg/kg/injection, schedule: Q01DX009 (ip), vehicle: other)?
The T/C was 97 % of control.

And the T/C (dose: 4.0 mg/kg/injection, schedule: Q01DX009 (oral), vehicle: distilled water + Tween-80)?
The T/C was 105 % of control.

What about the T/C (dose: 8.0 mg/kg/injection, schedule: Q01DX009 (oral), vehicle: distilled water + Tween-80) of the same compound?
The T/C was 103 % of control.

What about the T/C (dose: 16.0 mg/kg/injection, schedule: Q01DX009 (oral), vehicle: distilled water + Tween-80) of the same compound?
The T/C was 104 % of control.

With `Cc1ccccc1N(C=O)c1ccccc1C` as the compound, how does the T/C (dose: 100.0 mg/kg/injection, schedule: Q01DX009 (ip), vehicle: saline) read?
Its T/C is 106 % of control.

And the T/C (dose: 200.0 mg/kg/injection, schedule: Q01DX009 (ip), vehicle: saline)?
The T/C was 93 % of control.

And the T/C (dose: 400.0 mg/kg/injection, schedule: Q01DX009 (ip), vehicle: saline)?
The T/C was 98 % of control.

What does the source list for `CCOC(=O)c1sc2nc(CN3CCOCC3)[nH]c(=O)c2c1C`?
T/C (dose: 50.0 mg/kg/injection, schedule: Q01DX005 (ip), vehicle: saline with Tween-80): 94 % of control; T/C (dose: 100.0 mg/kg/injection, schedule: Q01DX005 (ip), vehicle: saline with Tween-80): 98 % of control; T/C (dose: 200.0 mg/kg/injection, schedule: Q01DX005 (ip), vehicle: saline with Tween-80): 98 % of control

How did the T/C (dose: 100.0 mg/kg/injection, schedule: Q04DX003 (ip), vehicle: Klucel (hydroxypropylcellulose) (HPC)) turn out when `CS(=O)(=O)OC1CC(Cl)CO1` (stereo not drawn) was run?
The T/C was 100 % of control.

What about the T/C (dose: 200.0 mg/kg/injection, schedule: Q04DX003 (ip), vehicle: Klucel (hydroxypropylcellulose) (HPC)) of the same compound?
Its T/C is 100 % of control.

What about the T/C (dose: 400.0 mg/kg/injection, schedule: Q04DX003 (ip), vehicle: Klucel (hydroxypropylcellulose) (HPC)) of the same compound?
The T/C was 103 % of control.

Which results are given for `CS(=O)(=O)c1ccc(/C(=N/N)c2ccccc2)cc1`?
T/C (dose: 12.5 mg/kg/injection, schedule: Q01DX009 (ip), vehicle: Klucel (hydroxypropylcellulose) (HPC)): 103 % of control; T/C (dose: 25.0 mg/kg/injection, schedule: Q01DX009 (ip), vehicle: Klucel (hydroxypropylcellulose) (HPC)): 102 % of control; T/C [1]: 101 % of control and 93 % of control

Which results are given for `CCCCCCCC(=O)OC(C)C1/C=C/C=C\C(=O)O[C@@H]2C[C@H]3OC4C5OC5(C)CCC4(COC(=O)C4O[C@@]4(C)C(OC(=O)CCCCCCC)CO1)[C@]2(C)[C@]31CO1` (stereo partly drawn)?
T/C [2]: 102 % of control; T/C [3]: 106 % of control; T/C [4]: 99 % of control and 106 % of control; T/C [5]: 98 % of control and 101 % of control; T/C (dose: 20.0 mg/kg/injection, schedule: Q01DX009 (ip), vehicle: Klucel (hydroxypropylcellulose) (HPC)): 110 % of control; T/C (dose: 40.0 mg/kg/injection, schedule: Q01DX005 (ip), vehicle: Klucel (hydroxypropylcellulose) (HPC)): 90 % of control; T/C (dose: 40.0 mg/kg/injection, schedule: Q01DX009 (ip), vehicle: Klucel (hydroxypropylcellulose) (HPC)): 99 % of control; T/C (dose: 80.0 mg/kg/injection, schedule: Q01DX005 (ip), vehicle: Klucel (hydroxypropylcellulose) (HPC)): 90 % of control; T/C (dose: 150.0 mg/kg/injection, schedule: Q01DX005 (ip), vehicle: Klucel (hydroxypropylcellulose) (HPC)): 91 % of control; T/C (dose: 160.0 mg/kg/injection, schedule: Q01DX005 (ip), vehicle: Klucel (hydroxypropylcellulose) (HPC)): 108 % of control; T/C (dose: 300.0 mg/kg/injection, schedule: Q01DX005 (ip), vehicle: Klucel (hydroxypropylcellulose) (HPC)): 100 % of control

With `COc1cc(NCCCNCC(C)(C)C)c2ncccc2c1` as the compound, how does the T/C [2] read?
The T/C was 100 % of control.

What about the T/C [3] of the same compound?
The T/C was 95 % of control.

And the T/C [4]?
Its T/C is 94 % of control.

What about the T/C [5] of the same compound?
Its T/C is 99 % of control.

For `Cc1cc(N=[N+]=[N-])c2ccccc2n1`, which T/C [6] is on record?
The T/C was 105 % of control.

And the T/C [7]?
Its T/C is 94 % of control.

`COc1ccc(C(=O)Nc2c(Cl)cccc2Cl)cc1OC` was tested. Which T/C [6] did it give?
Its T/C is 94 % of control.

And the T/C [7]?
The T/C was 88 % of control.

Which results are given for `CC(=O)Nc1ccc(OCCOC(=O)Nc2c(Cl)cccc2Cl)cc1`?
T/C [1]: 92 % of control; T/C (dose: 200.0 mg/kg/injection, schedule: Q01DX009 (ip), vehicle: Klucel (hydroxypropylcellulose) (HPC)): 92 % of control
